Our source for the IC50 values is PubChem BioAssay AID1117352.

By IC50 is commonly meant the midpoint of a concentration-inhibition curve.

In the assay the test system is DLD-1 viability, CellTiter-Glo ATP luminescence. The assay is described as follows: DLD-1 viability decrease, dose response, CellTiter-Glo luminescence, IC50 (AID 1117352). In general terms: Cellular ATP, detected with luciferase, serves as a proxy for viable cell number.

Each structure is given as a SMILES string. Calls of active or inactive are those of the source. No rule for the calls is given here.

Turning to `Cc1ccc([N+](=O)[O-])[c]2c1[O][Hg]2`, the IC50 is 1.62 µM. With `O=C(O)C1(C(=O)O)CCC1.[NH2-].[NH2-].[Pt+2]`, the IC50 was > 20 µM (inactive). For `OCCN1CCN(CC/C=C2/c3ccccc3Sc3ccc(C(F)(F)F)cc32)CC1`, the IC50 was 1.47 µM. The value for `O=C1[O][Bi][O]c2ccccc21` was > 20 µM (inactive).

Regarding `CCCCCCCCCCCCCC[N+](C)(C)C`, the IC50 was 0.475 µM. The value for `CC(=O)[O][Hg][c]1ccccc1` was 0.736 µM.
